Test results published in patent publication US20190209528A1, “MEDICINAL DRUG, METHOD, USE, AND COMPOUND FOR PREVENTING OR CURING LEUKEMIA ASSOCIATED WITH MLL” (FUJIFILM Corporation, priority 2016, published 2019).

Experiments:
[1] = system: MLL fusion gene (MLL-AF9) leukemia cells; test: Mouse acute myelogenous leukemia model with MLL fusion gene (MLL-AF9) introduced (Test Example 1); format: in vivo
Method: (§1) Hereinafter, Test examples 1 and 2 will be described. Test Example 1 and 2 were carried out with reference to J Clin Invest., 2013 Sep. 3, 123(9): 3876 to 3888; and Blood, 1 Sep. 2011, Volume 118, 2541 to 2550.
A mouse acute myelogenous leukemia (AML) model into which the MLL fusion gene (MLL-AF9) inducing cancer was introduced, was prepared. Specifically, bone marrow cells were collected from a C57BL/6-Ly5.1 mouse (Sankyo Labo Service Corporation, INC., hereinafter the same applies), and hematopoietic stem precursor cells were isolated using CD117 MicroBeads. MLL-AF9 marked with GFP (green fluorescent protein) was introduced into these cells using a virus. This MLL-AF9-introduced cells were transplanted to the same strain (C57BL/6) mouse (Japan SLC, Inc., hereinafter the same applies), and GFP-positive leukemia cells were collected from the mouse spleens that developed leukemia. These cells were subjected to second, third, and fourth transplantations, and after the fourth transplantation, MLL fusion gene (MLL-AF9) leukemia cells causing all the mice to develop leukemia in about 2 weeks were collected.
These MLL fusion gene (MLL-AF9) leukemia cells 1×10^6/mouse were injected into the C57BL/6 mouse from the tail vein. On day 4 after the day of injection, 0.5% methylcellulose suspension of 5-hydroxy-1H-imidazole-4-carboxamide-3/4 hydrate (medicine) was administered orally to the mouse once per day at 160 mg/kg (in terms of free base) on Monday (day 4), Wednesday (day 6), and Friday (day 8), and this administration was continued during the survival period of the mouse.

[2] = system: p53-deleted MLL fusion gene (MLL-AF9) leukemia cells; test: Mouse acute myelogenous leukemia model, MLL-AF9 leukemia cells with the p53 gene deleted (Test Example 2); format: in vivo
Method: as §1
In the case where the survival period was extended depending on the function of a p53 gene, there is a concern that clinical usefulness may be limited. For this reason, the MLL fusion gene (MLL-AF9) leukemia cells were prepared in the same manner as in Test Example 1 by using mice in which the p53 gene was deleted.

[3] = system: leukemia associated with MLL (MLL-ENL); details: FIG. 3 and FIG. 5 of Genes & development, Vol. 23, pp. 877 to 889, 2009; cited from earlier work

Row | SMILES | longest survival in medicine-administered group (FIG. 1) ([1]; 160 mg/kg orally Mon/Wed/Fri from day 4) | survival period of medicine-administered group (FIG. 1) ([1]; 160 mg/kg orally Mon/Wed/Fri from day 4, control mice all died in about 20 days) [days] | survival period versus non-administered group ([1]; C57BL/6 mouse, 1x10^6 MLL-AF9 leukemia cells via tail vein, 160 mg/kg (free base) orally once per day Mon/Wed/Fri from day 4, log-rank test significant) | proliferation of GFP+ cells in the peripheral blood (FIG. 2) ([1]; day 10 after injection of leukemia cells, Mann-Whitney's U test significant versus control) | longest survival in medicine-administered group (FIG. 3) [2] [days] | survival period of medicine-administered group (FIG. 3) ([2]; control mice died in less than 20 days) [days] | proliferation of GFP+ cells in the peripheral blood (FIG. 4) ([2]; day 19 after injection of leukemia cells) | survival period versus non-administered group, p53-deleted leukemia cells ([2]; same manner as Test Example 1) | efficacy of existing chemotherapy in leukemia associated with MLL [3]
1 | NC(=O)c1nc[nH]c1O [5-hydroxy-1H-imidazole-4-carboxamide-3/4 hydrate] | up to 40 days | ≥ 30 | significant extension of the survival period | proliferation of GFP+ cells was suppressed | ≥ 40 | ≥ 20 | proliferation of GFP+ cells was suppressed | extension of the survival period according to the present invention does not depend on the p53 gene | 
2 | Nc1ccn([C@@H]2O[C@H](CO)[C@@H](O)[C@@H]2O)c(=O)n1 [cytarabine] |  |  |  |  |  |  |  |  | not effective
3 | COc1cccc2c1C(=O)c1c(O)c3c(c(O)c1C2=O)C[C@@](O)(C(=O)CO)C[C@@H]3O[C@H]1C[C@H](N)[C@H](O)[C@H](C)O1 [doxorubicin] |  |  |  |  |  |  |  |  | not effective
